Measurements from paper PMC5460289, “Identification of New Shikonin Derivatives as Antitumor Agents Targeting STAT3 SH2 Domain” (Scientific Reports, 2017).

Key:
[1] = MTT anti-proliferation assay, non-tumorigenic cells; type: cell-based; conditions: human, non-tumorigenic MCF-10A cells, 24 h treatment
Experimental: (§1) Initial experiments were performed for evaluation of growth inhibition by the new compounds against six human breast cancer cell lines, including MCF-7 (ER+/PR+, HER-2-), BT474 (ER+/PR+, HER-2+), SKBR-3 (ER-/PR-/HER-2+), MDA-MB-436 (ER-/PR-/HER-2-), MDA-MB-231 (ER-/PR-/HER-2-), MDA-MB-468 (ER-/PR-/HER-2-) and non-tumorigenic MCF-10A cells. After 24 h treatment by the obtained compounds, the inhibition was assessed and the IC50 was summarized. […] Subsequently, the inhibition of STAT3 activation by PMM-172 and Stattic was evaluated using a dual-luciferase assay.
(§2) The anti-proliferative activities of the prepared compounds against MCF-7 (ER+/PR+, HER-2-), BT474 (ER+/PR+, HER-2+), SKBR-3 (ER-/PR-/HER-2+), MDA-MB-436 (ER-/PR-/HER-2-), MDA-MB-231 (ER-/PR-/HER-2-), MDA-MB-468 (ER-/PR-/HER-2-) and non-tumorigenic MCF-10A cell lines were evaluated using a standard (MTT)-based colorimetric assay with some modification. Cell lines were grown to log phase in DMEM supplemented with 10% fetal bovine serum. Cell suspensions were prepared and 100 μL/well dispensed into 96-well plates giving 10^4 cells/well. The subsequent incubation was permitted at 37 °C, 5% CO2 atmosphere for 24 h to allow the cells to reattach. Subsequently, cells were treated with the target compounds at increasing concentrations in the presence of 10% FBS for 24 h. Then, cell viability was assessed by the conventional 3-(4, 5-dimethylthiazol-2-yl)-2, 5-diphenyltetrazolium bromide (MTT) reduction assay and carried out strictly according to the manufacturer instructions. The absorbance (OD570) was read on an ELISA reader (Tecan, Austria). In all experiments, three replicate wells were used for each drug concentration. Each assay was carried out for at least three times.

[2] = system: BT-474; experiment: MTT anti-proliferation assay; type: cell-based, human; conditions: Homo sapiens, BT-474, 24 h treatment
Experimental: as §1, §2

[3] = system: MCF-7; experiment: MTT anti-proliferation assay; type: cell-based, human; conditions: Homo sapiens, MCF7, 24 h treatment
Experimental: as §1, §2

[4] = system: MDA-MB-231; experiment: MTT anti-proliferation assay; type: cell-based, human; conditions: Homo sapiens, MDA-MB-231, 24 h treatment
Experimental: as §1, §2

[5] = system: MDA-MB-436; experiment: MTT anti-proliferation assay; type: cell-based, human; conditions: Homo sapiens, MDA-MB-436, 24 h treatment
Experimental: as §1, §2

[6] = system: MDA-MB-468; experiment: MTT anti-proliferation assay; type: cell-based, human; conditions: Homo sapiens, MDA-MB-468, 24 h treatment
Experimental: as §1, §2

[7] = system: SKBR-3; experiment: MTT anti-proliferation assay; type: cell-based, human; conditions: Homo sapiens, SK-BR-3, 24 h treatment
Experimental: as §1, §2

SMILES | IC50 [2] [µM] | IC50 [3] [µM] | IC50 [4] [µM] | IC50 [5] [µM] | IC50 [6] [µM] | IC50 [7] [µM] | CC50 at 24 h [1] [µM]
CC(C)=CC[C@@H](OC(=O)CSc1nnc(-c2ccccc2)o1)C1=CC(=O)c2c(O)ccc(O)c2C1=O [PMM-158, (R)-1-(5,8-dihydroxy-1,4-dioxo-1,4-dihydronaphthalen-2-yl)-4-methylpent-3-en-1-yl 2-((5-phenyl-1,3,4-oxadiazol-2-yl)thio)acetate] | 15.6 ± 1.03 | 12.1 ± 0.42 | 9.17 ± 0.99 | 10.1 ± 0.92 | 10.6 ± 0.65 | 11.5 ± 0.74 | 92.5 ± 0.27
CC(C)=CC[C@@H](OC(=O)CSc1nnc(-c2ccc(F)cc2)o1)C1=CC(=O)c2c(O)ccc(O)c2C1=O [PMM-159, (R)-1-(5,8-dihydroxy-1,4-dioxo-1,4-dihydronaphthalen-2-yl)-4-methylpent-3-en-1-yl 2-((5-(4-fluorophenyl)-1,3,4-oxadiazol-2-yl)thio)acetate] | 10.8 ± 0.94 | 9.22 ± 0.13 | 7.24 ± 0.82 | 8.49 ± 0.78 | 8.23 ± 1.27 | 8.95 ± 0.69 | 89.5 ± 0.99
CC(C)=CC[C@@H](OC(=O)CSc1nnc(-c2cccc(F)c2)o1)C1=CC(=O)c2c(O)ccc(O)c2C1=O [PMM-160, (R)-1-(5,8-dihydroxy-1,4-dioxo-1,4-dihydronaphthalen-2-yl)-4-methylpent-3-en-1-yl 2-((5-(3-fluorophenyl)-1,3,4-oxadiazol-2-yl)thio)acetate] | 18.3 ± 1.24 | 15.3 ± 0.52 | 9.66 ± 1.21 | 11.8 ± 0.86 | 12.4 ± 0.52 | 10.5 ± 0.88 | 68.3 ± 0.27
CC(C)=CC[C@@H](OC(=O)CSc1nnc(-c2ccccc2F)o1)C1=CC(=O)c2c(O)ccc(O)c2C1=O [PMM-161, (R)-1-(5,8-dihydroxy-1,4-dioxo-1,4-dihydronaphthalen-2-yl)-4-methylpent-3-en-1-yl 2-((5-(2-fluorophenyl)-1,3,4-oxadiazol-2-yl)thio)acetate] | 11.1 ± 1.12 | 9.81 ± 0.49 | 8.58 ± 0.53 | 9.55 ± 0.83 | 8.97 ± 1.05 | 9.29 ± 0.66 | 84.5 ± 0.74
CC(C)=CC[C@@H](OC(=O)CSc1nnc(-c2cccc(Cl)c2)o1)C1=CC(=O)c2c(O)ccc(O)c2C1=O [PMM-163, (R)-1-(5,8-dihydroxy-1,4-dioxo-1,4-dihydronaphthalen-2-yl)-4-methylpent-3-en-1-yl 2-((5-(3-chlorophenyl)-1,3,4-oxadiazol-2-yl)thio)acetate] | 9.27 ± 0.86 | 8.69 ± 0.83 | 6.04 ± 0.59 | 7.09 ± 0.63 | 7.83 ± 0.55 | 7.56 ± 0.72 | 86.2 ± 0.33

Continued, in another order:

IC50 [2] [µM] | IC50 [3] [µM] | IC50 [4] [µM] | IC50 [5] [µM] | IC50 [6] [µM] | IC50 [7] [µM] | SMILES | CC50 at 24 h [1] [µM]
9.54 ± 0.91 | 9.01 ± 0.92 | 6.14 ± 1.05 | 7.28 ± 0.77 | 6.85 ± 0.92 | 8.03 ± 0.83 | CC(C)=CC[C@@H](OC(=O)CSc1nnc(-c2ccc(Cl)cc2)o1)C1=CC(=O)c2c(O)ccc(O)c2C1=O [PMM-162, (R)-1-(5,8-dihydroxy-1,4-dioxo-1,4-dihydronaphthalen-2-yl)-4-methylpent-3-en-1-yl 2-((5-(4-chlorophenyl)-1,3,4-oxadiazol-2-yl)thio)acetate] | 91.9 ± 1.21
7.09 ± 0.65 | 5.71 ± 0.52 | 3.76 ± 1.02 | 4.41 ± 0.55 | 3.94 ± 0.73 | 4.49 ± 0.58 | CC(C)=CC[C@@H](OC(=O)CSc1nnc(-c2ccccc2Cl)o1)C1=CC(=O)c2c(O)ccc(O)c2C1=O [PMM-164, (R)-1-(5,8-dihydroxy-1,4-dioxo-1,4-dihydronaphthalen-2-yl)-4-methylpent-3-en-1-yl 2-((5-(2-chlorophenyl)-1,3,4-oxadiazol-2-yl)thio)acetate] | 74.6 ± 0.55
9.22 ± 0.98 | 9.38 ± 0.66 | 5.47 ± 1.01 | 5.97 ± 0.67 | 6.58 ± 0.15 | 6.23 ± 0.73 | CC(C)=CC[C@@H](OC(=O)CSc1nnc(-c2ccc(Br)cc2)o1)C1=CC(=O)c2c(O)ccc(O)c2C1=O [PMM-165, (R)-1-(5,8-dihydroxy-1,4-dioxo-1,4-dihydronaphthalen-2-yl)-4-methylpent-3-en-1-yl 2-((5-(4-bromophenyl)-1,3,4-oxadiazol-2-yl)thio)acetate] | 83.7 ± 1.28
